Assay [1] has as its system BaF3. As to the kind of experiment: PROTAC activity at CRBN/KIF5B-RET (unknown origin) expressed in mouse BaF3 cells assessed as induction of RET degradation at 10 nM incubated for 24 hrs by immunoblot analysis relative to control. Type of assay: cell-based. Background: Immunoblotting shows a protein as a band on a membrane.
Assay [2] deals with BaF3. Description: Antiproliferative activity against mouse BaF3 cells stably expressing KIF5B-RET V804M mutant incubated for 72 hrs by CCK8 assay. Type of assay: functional, cell-based. The following applies: BaF3, 72 h. (In general: Tetrazolium assays rely on reduction of a dye to a coloured formazan, in cell work by metabolically active cells.)
The test system of assay [3] is BaF3. Description: Antiproliferative activity against mouse BaF3 cells stably expressing KIF5B-RET G810S mutant incubated for 72 hrs by CCK8 assay. Type of assay: functional, cell-based. As to conditions: BaF3, 72 h.
Assay [4] concerns the target Proto-oncogene tyrosine-protein kinase receptor Ret (Homo sapiens, UniProt P07949). Description: Inhibition of RET (unknown origin) preincubated for 10 mins followed by substrate/ATP addition measured after 30 mins by HTRF assay. For orientation: In TR-FRET formats the signal depends on donor and acceptor labels being close together.
The subject of assay [5] is BaF3. As to the kind of experiment: Antiproliferative activity against mouse BaF3 cells stably expressing KIF5B-RET G810C mutant incubated for 72 hrs by CCK8 assay. The format is functional, cell-based. As to conditions: BaF3, 72 h.
Assay [6] relates to BaF3. Description: Antiproliferative activity against mouse BaF3 cells stably expressing KIF5B-RET incubated for 72 hrs by CCK8 assay. The format is functional, cell-based. The following applies: BaF3, 72 h.
For assay [7], the system named is BaF3. As to the kind of experiment: Antiproliferative activity against mouse BaF3 cells stably expressing KIF5B-RET G810R mutant incubated for 72 hrs by CCK8 assay. Type of assay: functional, cell-based. The following applies: BaF3, 72 h.
Assay [8] concerns BaF3. Description: Induction of degradation of KIF5B-RET (unknown origin) expressed in mouse BaF3 cells at 10 nM incubated for 24 hrs by immunoblot analysis relative to control. The following applies: Homo sapiens. Type of assay: cell-based.
The test system of assay [9] is BaF3. As to the kind of experiment: Antiproliferative activity against mouse BaF3 cells stably expressing CCDC6-RET V804M mutant incubated for 72 hrs by CCK8 assay. Type of assay: functional, cell-based. As to conditions: BaF3, 72 h.
Assay [10] in a line: Induction of apoptosis in mouse BaF3 cells stably expressing KIF5B-RET G810C mutant assessed as late apoptotic cells at 100 nM incubated for 48 hrs by Annexin V-FITC/PI staining based flow cytometry (reference value: 5.99 %). The format is functional.
Assay [11] relates to BaF3. As to the kind of experiment: Antiproliferative activity against mouse BaF3 cells stably expressing CCDC6-RET G810R mutant incubated for 72 hrs by CCK8 assay. The format is functional, cell-based. The following applies: BaF3, 72 h.
Assay [12] is described as follows: Induction of apoptosis in mouse BaF3 cells stably expressing KIF5B-RET G810C mutant assessed as viable cells at 100 nM incubated for 48 hrs by Annexin V-FITC/PI staining based flow cytometry (reference value: 92.21 %). The format is functional. The following applies: read-out: Activity.
Assay [13] concerns BaF3. Description: Antiproliferative activity against mouse BaF3 cells stably expressing CCDC6-RET incubated for 72 hrs by CCK8 assay. The format is functional, cell-based. The following applies: BaF3, 72 h.
Assay [14] in a line: Induction of apoptosis in mouse BaF3 cells stably expressing KIF5B-RET G810C mutant assessed as necrotic cells at 100 nM incubated for 48 hrs by Annexin V-FITC/PI staining based flow cytometry (reference value: 0.94 %). The format is functional.
In assay [15] the test system is BaF3. As to the kind of experiment: Antiproliferative activity against mouse BaF3 cells stably expressing CCDC6-RET G810C mutant incubated for 72 hrs by CCK8 assay. Type of assay: functional, cell-based. As to conditions: BaF3, 72 h.
Assay [16] is described as follows: Induction of apoptosis in mouse BaF3 cells stably expressing KIF5B-RET G810C mutant assessed as early apoptotic cells at 100 nM incubated for 48 hrs by Annexin V-FITC/PI staining based flow cytometry (reference value: 0.86 %). Type of assay: functional.
For assay [17], the system named is BaF3. As to the kind of experiment: PROTAC activity at VHL/KIF5B-RET (unknown origin) expressed in mouse BaF3 cells assessed as induction of RET degradation at 10 nM incubated for 24 hrs by immunoblot analysis relative to control. The format is cell-based.
In assay [18] the test system is BaF3. Description: PROTAC activity at CRBN/KIF5B-RET (unknown origin) expressed in mouse BaF3 cells assessed as induction of RET degradation at 10 nM incubated for 24 hrs by immunoblot analysis. Type of assay: cell-based.

Experimental findings from ChEMBL document CHEMBL6096698, “Discovery of a Selective and Orally Bioavailable RET Degrader with Effectiveness in Various Mutations” (J Med Chem, 2025) are described below.

The source made the active and inactive calls. The calls are words filed in the database; no cut-off is given here. Some results are limits rather than exact numbers.

Proto-oncogene tyrosine-protein kinase receptor Ret, sequence (P07949 whole entry): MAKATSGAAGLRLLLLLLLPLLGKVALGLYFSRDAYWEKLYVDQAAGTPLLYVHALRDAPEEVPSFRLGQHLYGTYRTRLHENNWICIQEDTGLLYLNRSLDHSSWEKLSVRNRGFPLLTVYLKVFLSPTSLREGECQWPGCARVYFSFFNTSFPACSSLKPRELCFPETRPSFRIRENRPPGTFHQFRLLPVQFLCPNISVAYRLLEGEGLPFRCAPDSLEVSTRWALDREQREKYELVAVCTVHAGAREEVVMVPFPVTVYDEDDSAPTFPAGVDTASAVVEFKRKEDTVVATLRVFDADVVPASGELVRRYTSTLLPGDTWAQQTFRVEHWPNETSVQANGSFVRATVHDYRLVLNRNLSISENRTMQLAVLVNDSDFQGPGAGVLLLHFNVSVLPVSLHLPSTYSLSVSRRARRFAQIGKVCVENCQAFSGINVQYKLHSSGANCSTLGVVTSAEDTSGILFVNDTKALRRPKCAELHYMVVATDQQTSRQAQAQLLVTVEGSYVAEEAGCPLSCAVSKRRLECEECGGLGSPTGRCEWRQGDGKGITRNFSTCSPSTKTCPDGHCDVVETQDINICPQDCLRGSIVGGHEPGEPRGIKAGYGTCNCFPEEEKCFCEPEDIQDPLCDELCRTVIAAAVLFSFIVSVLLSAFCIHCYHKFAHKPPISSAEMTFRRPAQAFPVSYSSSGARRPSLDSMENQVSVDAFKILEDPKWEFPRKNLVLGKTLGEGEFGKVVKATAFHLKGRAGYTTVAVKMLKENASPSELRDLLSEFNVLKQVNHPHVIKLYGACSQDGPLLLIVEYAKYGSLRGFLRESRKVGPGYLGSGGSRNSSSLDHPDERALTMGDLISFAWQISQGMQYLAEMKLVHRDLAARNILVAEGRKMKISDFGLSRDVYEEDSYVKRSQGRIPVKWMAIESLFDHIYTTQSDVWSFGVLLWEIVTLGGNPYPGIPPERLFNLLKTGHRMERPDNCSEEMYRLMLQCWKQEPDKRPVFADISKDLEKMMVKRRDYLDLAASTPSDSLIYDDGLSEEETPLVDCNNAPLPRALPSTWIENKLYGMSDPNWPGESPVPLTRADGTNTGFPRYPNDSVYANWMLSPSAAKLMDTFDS

What is called IC50 is the concentration that gives 50% inhibition. High values mean weaker potency in that assay, low ones greater potency in that assay. Turning to `COc1ccc(CN2C3CC2CN(c2ccc(-c4cc(N5CCC(N6CCN(C(=O)CCCCCNc7ccc8c(c7)C(=O)N(C7CCC(=O)NC7=O)C8=O)CC6)CC5)cn5ncc(C#N)c45)cn2)C3)cn1` (stereo unspecified), in the assay with BaF3 [1], the Activity worked out at 61%. In addition, the IC50 with BaF3 [2] stood at 13.1 nM; with BaF3 [3], 78.3 nM; in assay [4], 0.391 nM; in the assay with BaF3 [5] it was 182 nM; with BaF3 [6] it was 2.9 nM; with BaF3 [7] it was 552 nM.
Take `COc1ccc(CN2C3CC2CN(c2ccc(-c4cc(N5CCN(C(=O)CCCCCCCNc6cccc7c6C(=O)N(C6CCC(=O)NC6=O)C7=O)CC5)cn5ncc(C#N)c45)cn2)C3)cn1` (stereo unspecified): the Activity with BaF3 [1] came to 73%. Further, the IC50 with BaF3 [2] turned out to be 13.7 nM; in the assay with BaF3 [3], 62.1 nM; in assay [4] it was 0.203 nM; in the assay with BaF3 [5], 126 nM; in the assay with BaF3 [6], 1.6 nM; in the assay with BaF3 [7] it was 453 nM.
Take `COc1ccc(CN2C3CC2CN(c2ccc(-c4cc(N5CCNCC5)cn5ncc(C#N)c45)cn2)C3)cn1`: in the assay with BaF3 [8], the Activity turned out to be 0%. For the same compound, the IC50 was determined as 36.1 nM with BaF3 [2]; 98.6 nM in the assay with BaF3 [3]; 107 nM with BaF3 [5]; 5.6 nM in the assay on BaF3 [6]; 770 nM in the assay on BaF3 [7].
For `COc1ccc(CN2C3CC2CN(c2ccc(-c4cc(N5CCC(N6CCNCC6)CC5)cn5ncc(C#N)c45)cn2)C3)cn1`, the Activity in the assay with BaF3 [8] was determined as 0%. Further, the IC50 in the assay with BaF3 [2] turned out to be 42.9 nM; in the assay with BaF3 [3], 113 nM; in the assay on BaF3 [5], 156 nM; in the assay on BaF3 [6] it was 4.3 nM; in the assay with BaF3 [7], 724 nM.
In the case of `COc1ccc(CN2C3CC2CN(c2ccc(-c4cc(OCC(C)(C)O)cn5ncc(C#N)c45)cn2)C3)cn1` [SELPERCATINIB], the IC50 with BaF3 [9] came out at 12.2 nM; in the assay with BaF3 [11] it was 365 nM; in the assay with BaF3 [13], 4.2 nM; in the assay with BaF3 [2], 16.5 nM; with BaF3 [3], 95.2 nM; in the assay with BaF3 [15], 626 nM. In addition, the IC50 with BaF3 [5] worked out at 380 nM; in the assay on BaF3 [6] it was 7.7 nM; in the assay on BaF3 [7], 690 nM. For the same compound, the Activity in assay [10] was determined as 6.67%; in the assay on BaF3 [8], 0%; in assay [14] it was 1.63%; in assay [16], 1.04%. For the same compound, the viability at 0.1 µM in [12] was determined as 90.7%.
In the case of `COc1ccc(CN2C3CC2CN(c2ccc(-c4cc(N5CCC(N6CCN(C(=O)CCCCCNc7cccc8c7C(=O)N(C7CCC(=O)NC7=O)C8=O)CC6)CC5)cn5ncc(C#N)c45)cn2)C3)cn1` (stereo unspecified), the Activity in the assay on BaF3 [1] came to 72%. In addition, the IC50 was 5.2 nM in the assay with BaF3 [2]; 53.6 nM in the assay with BaF3 [3]; 0.329 nM in assay [4]; 50.4 nM in the assay on BaF3 [5]; 1.8 nM with BaF3 [6]; 376 nM in the assay on BaF3 [7].
In the case of `COc1ccc(CN2C3CC2CN(c2ccc(-c4cc(N5CCC(N6CCN(C(=O)CCCNc7cccc8c7C(=O)N(C7CCC(=O)NC7=O)C8=O)CC6)CC5)cn5ncc(C#N)c45)cn2)C3)cn1` (stereo unspecified), in the assay with BaF3 [1], the Activity is 62%. The IC50 in the assay with BaF3 [2] amounted to 11.3 nM; in the assay on BaF3 [3] it was 76.1 nM; in assay [4], 0.276 nM; with BaF3 [5], 149 nM; with BaF3 [6], 2.5 nM; with BaF3 [7], 513 nM.
As to `COc1ccc(CN2C3CC2CN(c2ccc(-c4cc(N5CCN(CCC(=O)N[C@H](C(=O)N6C[C@H](O)C[C@H]6C(=O)N[C@@H](C)c6ccc(-c7scnc7C)cc6)C(C)(C)C)CC5)cn5ncc(C#N)c45)cn2)C3)cn1`, the IC50 was 126 nM with BaF3 [2]; 723 nM in the assay on BaF3 [3]; 254 nM in the assay with BaF3 [5]; 86.8 nM in the assay on BaF3 [6]; above 5000 nM in the assay on BaF3 [7]. In the assay on BaF3 [17], the Activity was 29%.
Take `COc1ccc(CN2C3CC2CN(c2ccc(-c4cc(N5CCN(CCCCCCC(=O)N[C@H](C(=O)N6C[C@H](O)C[C@H]6C(=O)N[C@@H](C)c6ccc(-c7scnc7C)cc6)C(C)(C)C)CC5)cn5ncc(C#N)c45)cn2)C3)cn1`: the IC50 in the assay on BaF3 [2] was 983 nM; in the assay with BaF3 [3], above 5000 nM; in the assay on BaF3 [5], above 5000 nM; with BaF3 [6], 40.2 nM; with BaF3 [7], above 5000 nM. The Activity in the assay on BaF3 [17] worked out at 23%.
On to `COc1ccc(CN2C3CC2CN(c2ccc(-c4cc(N5CCN(CC6CN(c7ccc8c(c7)C(=O)N(C7CCC(=O)NC7=O)C8=O)C6)CC5)cn5ncc(C#N)c45)cn2)C3)cn1` (stereo unspecified), for which, in the assay on BaF3 [1], the Activity came out at 72%. Also, the IC50 in the assay with BaF3 [2] stood at 11.5 nM; with BaF3 [3], 35.7 nM; in assay [4] it was 0.227 nM; in the assay on BaF3 [5], 145 nM; in the assay on BaF3 [6], 1.9 nM; with BaF3 [7] it was 1030 nM.
Consider `COc1ccc(CN2C3CC2CN(c2ccc(-c4cc(N5CCN(C6CN(c7ccc8c(c7)C(=O)N(C7CCC(=O)NC7=O)C8=O)C6)CC5)cn5ncc(C#N)c45)cn2)C3)cn1` (stereo unspecified), for which the Activity with BaF3 [1] turned out to be 71%. Besides, the IC50 is 8.1 nM in the assay with BaF3 [2]; 52.6 nM with BaF3 [3]; 0.215 nM in assay [4]; 322 nM with BaF3 [5]; 2.8 nM with BaF3 [6]; 1110 nM in the assay with BaF3 [7].
In the case of `COc1ccc(CN2C3CC2CN(c2ccc(-c4cc(N5CCC(N6CCN(CCCC#Cc7cccc8c7CN(C7CCC(=O)N(C)C7=O)C8=O)CC6)CC5)cn5ncc(C#N)c45)cn2)C3)cn1` (stereo unspecified), the outcome in the assay on BaF3 [18] was inactive.
